# Reference: US7323436B2, “Adduct having an acidic solution of sparingly-soluble group IIA complexes” (priority 1999, dated 2008)
# Assay: Contact with human skin and nose
# Type: in vivo
# Details: pH of less than 0.5
# Excerpt: As discussed above, AGIIS has relatively less dehydrating properties (such as charring sucrose) as compared to the saturated solution of CaSO4 in the same concentration of H2SO4. […] AGIIS is non-volatile at room temperature.
compound,measurement,value
O=S(=O)(O)O [sulfuric acid],irritation of a hand put into the solution,an irritation would occur within a relatively short span of time
